Patent publication US7732398B2, “Medicinal uses of mu-opioid receptor agonists” (Cornell Research Foundation, Inc., priority 2000, dated 2010)
Several values for one entry are separate records, joined by “and”; a condition that tells them apart may be missing. Identical values can stand only once. Marks after values point to notes of the source that are not given here.

Legend:
[1] = test system: Male Sprague-Dawley rats; experiment: Rat tail-flick test, antinociceptive effects after intrathecal administration; format: in vivo; details: for time for which tail-flick latencies were significantly greater than baseline: 3 times ED50, direct percutaneous intrathecal injection, n=8; for Response Latencies: 3 times ED50 intrathecal, at peak analgesia; for Potency Ratios: antinociceptive potency relative to intrathecal morphine (=1); for EDT50: cumulative dose-response, quantal tail-flick test, n=10; for Baseline Latencies: tail-flick latency prior to the administration of any drug, n=4
Method: Male Sprague-Dawley rats (300-350 g) were used.
Under light halothane anesthesia a needle connected to a Hamilton syringe was inserted percutaneously between spinal processes of the third and fourth lumbar vertebrae into the intrathecal space. A quick flick of the tail was observed when the tip of the needle entered the intrathecal space and was used as an indicator of successful puncture (Mestre et al., 1994). Drugs were delivered in a volume of 5 μl.
Intrathecal catheterization was performed at least two days prior to the experiment as previously described (Shimoyama et al., 1996). Briefly, under halothane anesthesia, a PE-10 tube was inserted through a small hole made in the atlanto-occipital membrane and threaded 8.5 cm down the intrathecal space to the lumbosacral level of the spinal cord. Drugs were delivered via the catheter in a volume of 5 μl, followed by 10 μl saline to flush the catheter.
To assess the antinociceptive effects of the opioids, the tail-flick test was used. Radiant heat was applied to the tail at 5-8 cm from the tip using a tail-flick apparatus (IITC, Woodland Hills, Calif.). The time from the onset of the heat to the withdrawal of the tail (tail-flick latency) was measured. The intensity of the radiant heat was adjusted so that baseline latencies would fall between 2.5 and 3.5 seconds. To avoid tissue damage the heat stimulus was discontinued after seven seconds. A baseline latency was obtained for each animal prior to the administration of any drug. Subsequent response latencies were determined at designated time points. Analgesic testing was performed by a blinded investigator.
Cumulative dose-response studies were performed for each drug using the tail-flick test (Shimoyama et al., 1996), (Shimoyama et al., 1997). Each drug was tested in a group of ten rats. After measuring the baseline latencies, increasing doses of each drug were administered via an intrathecal catheter until each animal in the group became an analgesic responder. An analgesic responder was defined as one whose response tail-flick latency was two or more times the value of the baseline latency. The response latency after each dosing was determined at peak analgesia, which was 15, 30 and 45 min after the administration of the MOR, DALDA and [Dmt^1]DALDA, respectively (based on preliminary studies). Any subsequent dosing was performed immediately after the determination of response latency. The percentage of analgesic responders in the group of rats for each cumulative dose was calculated, and a cumulative dose-response curve was constructed. The dose-response data were analyzed by the BLISS-21 computer program. This program maximized the log-likelihood function to fit a parallel set of gaussian normal sigmoid curves to the dose-response data and provides ED50 values, 95% confidence interval (CI) and relative potency estimates (Umans and Inturrisi, 1981).
The effect of naloxone on the antinociceptive effects of intrathecal MOR, DALDA and [Dmt^1]DALDA was examined. An equipotent dose (3 times the ED50 value determined in Study 1) of MOR, DALDA or [Dmt^1]DALDA was given via an intrathecal catheter. Tail-flick latencies were measured prior to the administration of any drug and at the time of peak analgesia for each compound (at 15, 30 and 45 minutes after administration, for MOR, DALDA and [Dmt^1]DALDA, respectively). Naloxone hydrochloride at a dose of 82.5 nmol or saline was administered via the intrathecal catheter 10 minutes prior to the second tail-flick testing. Four rats were tested for each combination of drugs. Data were analyzed using the paired t-test.
A dose 3 times the ED50 value of MOR, DALDA, or [Dmt^1]DALDA was administered intrathecally. Tail-flick latencies were measured prior to the administration of any drug (=baseline latency) and at the time of peak analgesia (=response latency). […]

[2] = test system: Male Sprague-Dawley rats; experiment: Respiratory effects: minute ventilation (VE) under 5% CO2 challenge, whole body plethysmography; format: in vivo, rat; details: for minimum VE compared with saline group: intrathecal
Method: The effects of each drug on minute ventilation (VE) under 5% CO2 challenge were evaluated using whole body plethysmography (Tatsumi et al., 1991). An unrestrained rat was placed in a 3-liter whole-body plethysmograph chamber. After a 15-min acclimation period, a gas mixture of 5% CO2 and 21% O2 in N2 (100% humidified) was supplied into and out of the chamber at a rate of 1000 ml/min, and the animal was allowed to breathe the gas mixture for 5 minutes. After a steady-state ventilatory condition had been reached, with the animal awake and quiet, the inlet and outlet of the chamber were closed and the pressure changes in the box (due to the warming and wetting of the gas inspired by the rat and the cooling and drying of the expired gas) were recorded using a high-gain differential pressure transducer. A calibration volume of 0.2 ml of air was regularly introduced into the chamber during the recordings. The recordings were made for 20 to 30 seconds. Tidal volumes were calculated from the pressure changes using the equation derived by Drorbaugh and Fenn (1955). Respiratory frequencies were determined from the number of respiratory cycles in the recordings and VE values were calculated (tidal volume×frequency).
Rats were randomly assigned to one of 7 groups. The number of rats in each group was 6 to 10. The animals of each group were given 3 times (lower dose) or 30 times (higher dose) the ED50 value (antinociceptive) of MOR, DALDA or [Dmt^1]DALDA, or saline by direct percutaneous intrathecal injection. VE under 5% CO2 challenge was determined prior to and every hour up to 10 hours after the administration of the drug. VE values were expressed as a percentage of the baseline VE value obtained prior to the administration of any drug. The smallest VE value obtained after the administration of a drug (minimum V E) was determined for each animal. Mean values of the minimum V E for animals of each group were compared using the one-way analysis of variance followed by the Dunnett's test. For each animal, respiratory depression was defined as a minimum VE value that is below two standard deviations of the mean (mean−2×SD) of the saline group.
A minimum VE value (see Materials and Methods) less than the mean−(2×S.D.) of the minimum VE value of the saline group was considered a “low minimum VE”.

[3] = test system: Male Sprague-Dawley rats; experiment: Behavioral effects after intrathecal administration; format: in vivo, rat; details: for rigidity of the caudal part of the body: higher dose (30 times ED50)
Text: However, they retained their righting reflex.

[4] = naloxone hydrochloride 82.5 nmol intrathecal 10 min prior to measurement
[5] = high dose (30 times antinociceptive ED50)
[6] = low dose (3 times antinociceptive ED50)
[7] = higher dose, 30 times ED50 (Morphine 100 nmol of 10 rats, DALDA 7 nmol of 8, [Dmt1]DALDA 34 pmol of 7)
[8] = lower dose, 3 times ED50 (Morphine 10 nmol, DALDA 0.7 nmol, [Dmt1]DALDA 3.4 pmol), 6 rats per group

Structure (SMILES) | time for which tail-flick latencies were significantly greater than baseline [1] [h] | Response Latencies [1, 4] | Response Latencies ([1]; saline 10 min prior to measurement, cut-off 7 s, listed as [Dmt^1]DALDA + saline) | potency relative to DALDA in the rat tail flick test ([1]; after intrathecal administration) [fold] | Potency Ratios [1] | EDT50 ([1]; intrathecal) [pmol] | effect of added yohimbine (100 μg) on the antinociceptive effect ([1]; intrathecal, [Dmt1]DALDA 1.1 pmol or DALDA 240 pmol with yohimbine) | Baseline Latencies [1] [s] | minimum VE compared with saline group [2, 5] | Time of Occurrence of Low Minimum VE ([2]; higher dose, 30 times ED50) | minimum VE compared with saline group [2, 6] | rigidity of the caudal part of the body [3] | Response Latencies ([1]; saline 10 min prior to measurement, cut-off 7 s, listed as DALDA + saline) | minimum VE ([2]; four rats of the higher dose DALDA group) | No. of Rats with Low Minimum VE [2, 7] | Time of Occurrence of Low Minimum VE ([2]; lower dose, 3 times ED50) | No. of Rats with Low Minimum VE [2, 8] | sedative effects ([3]; higher dose, coincided with respiratory depression) | Response Latencies ([1]; saline 10 min prior to measurement, cut-off 7 s, listed as MOR + saline) | No. of Rats with Low Minimum VE ([2]; lower dose, 3 times ED50 (Morphine 10 nmol, DALDA 0.7 nmol, [Dmt1]DALDA 3.4 pmol), 6 rats per group, listed as MOR)
Cc1cc(O)cc(C)c1C[C@H](N)C(=O)N[C@H](CCCNC(=N)N)C(=O)N[C@@H](Cc1ccccc1)C(=O)N[C@@H](CCCCN)C(N)=O [[Dmt^1]DALDA, 2′,6′-dimethyl-Tyr-D-Arg-Phe-Lys-NH2] | 13 | not different from baseline values | ≥ 7 (cut-off latency)* s | 200 | 3000 and 3160 | 1.06 | significantly attenuated | 2.83 ± 0.17 | not different | 3 h after administration | not different | Rigidity of the caudal part of the body was observed in each animal |  |  |  |  |  |  |  | 
NCCCC[C@H](NC(=O)[C@H](Cc1ccccc1)NC(=O)[C@@H](CCCN=C(N)N)NC(=O)[C@@H](N)Cc1ccc(O)cc1)C(N)=O [DALDA, H-Tyr-D-Arg-Phe-Lys-NH2] | 7 | not different from baseline values |  |  | 14 and 14.1 | 237 |  | 2.63 ± 0.15 | significantly lower minimum VE | 3-5 h after administration | significantly lower minimum VE | Rigidity of the caudal part of the body was observed in each animal | ≥ 7 (cut-off latency)* s | less than 60 % of baseline | 4 | 3-5 h after administration | 4 | showed sedative effects |  | 
CN1CC[C@]23c4c5ccc(O)c4O[C@H]2[C@@H](O)C=C[C@H]3[C@H]1C5 [Morphine, morphine, reference compound] | 3 | not different from baseline values |  |  |  | 3330 |  | 2.78 ± 0.50 | significantly lower | 3-5 h after administration |  | Rigidity of the caudal part of the body was observed in each animal |  |  | 4 | 4 h after administration | 1 |  | ≥ 7 (cut-off latency)* s | one
